In ChEMBL document CHEMBL1201862, “PubChem BioAssay data set” (2004):
Active and inactive are the calls of the source. Rule as the data show it, for most assays here: actives have a measured IC50 and inactives only a lower limit.

How the values were obtained:
Format in all cases: functional
[1] = biological target: T1, Rac GTPase-activating protein 1 (Homo sapiens, UniProt Q9H0H5); assay: blockers of MgcRacGAP-driven Rac1 GTP hydrolysis – biochemical, ADP Hunter fluorescence, primary and confirmatory, confirmation (AID 624330)
T1 sequence (Q9H0H5 whole entry): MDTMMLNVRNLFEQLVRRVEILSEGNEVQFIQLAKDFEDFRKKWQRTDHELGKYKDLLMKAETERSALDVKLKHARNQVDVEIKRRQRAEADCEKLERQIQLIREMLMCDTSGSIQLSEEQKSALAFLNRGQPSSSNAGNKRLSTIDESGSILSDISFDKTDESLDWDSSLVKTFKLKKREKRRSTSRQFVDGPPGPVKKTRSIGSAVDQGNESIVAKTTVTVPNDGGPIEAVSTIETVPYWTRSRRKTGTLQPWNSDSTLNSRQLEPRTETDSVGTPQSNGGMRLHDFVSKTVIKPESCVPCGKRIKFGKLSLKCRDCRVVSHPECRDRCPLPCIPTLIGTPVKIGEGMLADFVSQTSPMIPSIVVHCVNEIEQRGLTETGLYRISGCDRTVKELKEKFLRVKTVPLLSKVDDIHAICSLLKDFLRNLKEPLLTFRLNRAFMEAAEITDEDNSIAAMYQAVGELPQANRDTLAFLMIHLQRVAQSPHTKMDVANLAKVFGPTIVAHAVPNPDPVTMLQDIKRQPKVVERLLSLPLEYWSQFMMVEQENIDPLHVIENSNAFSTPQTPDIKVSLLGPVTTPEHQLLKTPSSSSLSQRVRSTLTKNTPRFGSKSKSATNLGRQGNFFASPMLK

Prothrombin = Prothrombin (Bos taurus, UniProt P00735); assay: thrombin protease inhibitors – biochemical, fluorescence polarization, uHTS hits, dose response (AID 602369)
[2] = biological target: T2, Apoptotic protease-activating factor 1 (Homo sapiens, UniProt O14727)
T2 sequence (O14727 whole entry): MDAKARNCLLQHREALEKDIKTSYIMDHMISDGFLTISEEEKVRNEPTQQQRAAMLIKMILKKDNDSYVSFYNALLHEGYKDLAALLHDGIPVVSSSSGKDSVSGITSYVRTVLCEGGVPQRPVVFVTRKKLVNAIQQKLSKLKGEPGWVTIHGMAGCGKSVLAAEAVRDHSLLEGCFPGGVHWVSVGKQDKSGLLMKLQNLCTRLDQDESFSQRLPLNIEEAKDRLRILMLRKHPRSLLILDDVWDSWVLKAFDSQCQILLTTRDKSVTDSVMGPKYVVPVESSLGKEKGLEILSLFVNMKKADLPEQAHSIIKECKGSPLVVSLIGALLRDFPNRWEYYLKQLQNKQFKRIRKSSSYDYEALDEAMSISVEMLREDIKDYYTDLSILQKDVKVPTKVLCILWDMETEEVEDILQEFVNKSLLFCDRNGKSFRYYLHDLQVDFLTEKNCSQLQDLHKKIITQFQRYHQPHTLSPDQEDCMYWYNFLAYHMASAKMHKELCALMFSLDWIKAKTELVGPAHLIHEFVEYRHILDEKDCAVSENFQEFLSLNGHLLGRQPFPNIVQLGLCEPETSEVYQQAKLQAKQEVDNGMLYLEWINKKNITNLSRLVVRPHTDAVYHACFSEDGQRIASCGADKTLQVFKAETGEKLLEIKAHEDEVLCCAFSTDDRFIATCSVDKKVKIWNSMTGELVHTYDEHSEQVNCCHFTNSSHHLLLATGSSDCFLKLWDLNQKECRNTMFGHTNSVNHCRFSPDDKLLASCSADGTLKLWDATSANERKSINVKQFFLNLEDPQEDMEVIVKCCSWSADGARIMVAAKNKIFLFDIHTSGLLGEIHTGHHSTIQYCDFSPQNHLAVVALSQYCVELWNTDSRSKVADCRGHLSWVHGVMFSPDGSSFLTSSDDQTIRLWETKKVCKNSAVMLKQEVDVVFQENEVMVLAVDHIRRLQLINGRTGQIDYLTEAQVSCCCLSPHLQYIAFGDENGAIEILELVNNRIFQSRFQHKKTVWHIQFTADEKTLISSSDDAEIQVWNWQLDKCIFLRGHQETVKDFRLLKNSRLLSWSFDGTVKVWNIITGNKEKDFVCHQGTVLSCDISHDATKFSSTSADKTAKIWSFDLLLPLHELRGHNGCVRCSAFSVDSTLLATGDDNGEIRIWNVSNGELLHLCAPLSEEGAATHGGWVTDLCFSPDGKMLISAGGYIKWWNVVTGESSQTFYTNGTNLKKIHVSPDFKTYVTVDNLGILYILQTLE

[3] = viability loss in HeLa cells – cytotoxicity control for MgcRacGAP inhibitor project, dose response (AID 624300)
Bcl-2-related protein A1 = biological target: T3, Bcl-2-related protein A1 (Mus musculus, UniProt Q07440);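 also: confirmatory dose–response counterscreen on Bfl-1, used to check hits from a UBC13 polyubiquitin inhibitor campaign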
T3 sequence (Q07440 whole entry): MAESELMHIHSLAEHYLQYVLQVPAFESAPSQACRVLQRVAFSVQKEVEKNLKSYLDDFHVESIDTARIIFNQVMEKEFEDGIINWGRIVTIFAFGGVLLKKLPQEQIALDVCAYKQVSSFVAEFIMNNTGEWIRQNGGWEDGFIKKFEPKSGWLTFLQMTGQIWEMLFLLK

[4] = biological target: Small ubiquitin-related modifier 1 (Homo sapiens, UniProt P63165); assay: SUMO1 protein-protein binding blockers, potency – biochemical, FRET, dose response (AID 624383); settings: read-out: IC50_Mean
Small ubiquitin-related modifier 1, sequence (P63165 whole entry): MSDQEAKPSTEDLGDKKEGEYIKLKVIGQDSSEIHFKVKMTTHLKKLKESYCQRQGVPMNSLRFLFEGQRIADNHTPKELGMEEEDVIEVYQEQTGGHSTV

[5] = biological target: T4, Ubiquitin-conjugating enzyme E2 N (Homo sapiens, UniProt P61088);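 also: Dose-response confirmation in a TR-FRET assay detecting UBC13-driven polyubiquitin chain formation, inhibition measured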
T4 sequence (P61088 whole entry): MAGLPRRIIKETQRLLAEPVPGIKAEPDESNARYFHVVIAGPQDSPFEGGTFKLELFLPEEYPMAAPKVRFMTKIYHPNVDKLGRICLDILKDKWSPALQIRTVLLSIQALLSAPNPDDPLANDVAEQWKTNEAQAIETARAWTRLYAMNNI

N=C(N)N/N=C/c1ccc(N(c2ccccc2)c2ccccc2)cc1
active: IC50 [1] 60.7 µM | IC50 (Prothrombin) 41.8 µM | IC50 [2] 28.2 µM | CC50 [3] 17.1 µM | IC50 (Bcl-2-related protein A1) 3.85 µM | IC50 [4] 8.67 µM | IC50 [5] 8.24 µM
